Drawing on ChEMBL document CHEMBL3045997, “Some remarkable reactions of the diterpene eriocephalin: Neo-clerodane derivatives with insect antifeedant activity” (1994), this text covers AFC50 and AFI for nine compounds.

One test deals with Spodoptera littoralis. In words: Antifeedant activity against Spodoptera littoralis larvae fed on compound-treated disk after 18 hr by two-choice assay. It is filed as functional.
In turn, `CC(=O)O[C@@H]1O[C@H](c2ccoc2)C[C@]12[C@H](C)[C@@H](OC(C)=O)C(=O)[C@H]1[C@@H]2CCC[C@@]12CO[C@@H](C)O2` came in with an AFC50 of more than 390 ppm.

`CC(=O)OC[C@]12[C@H](CCC[C@]13CO3)[C@@]1(C[C@@H](c3ccoc3)O[C@@H]1OC(C)=O)[C@H](C)[C@@H](OC(C)=O)[C@@H]2OC(C)=O` showed an AFC50 of more than 1000 ppm.

`CC(=O)O[C@@H]1O[C@H](c2ccoc2)C[C@]12[C@H](C)[C@@H](OC(C)=O)C(=O)[C@H]1[C@@H]2CCC[C@@]12CO[C@H](C)O2` had an AFC50 of more than 1000 ppm.

For `CC(=O)OC[C@]12[C@H](CCC[C@]13CO3)[C@@]1(C[C@@H](c3ccoc3)O[C@@H]1O)[C@H](C)[C@@H](OC(C)=O)[C@@H]2O`, the AFC50 is reported as more than 1000 ppm.

Consider `CC(=O)OC[C@]12C(=O)[C@H](O)[C@@H](C)[C@]3(C[C@@H](c4ccoc4)O[C@H]3OC(C)=O)[C@H]1CCC[C@]21CO1` [ERIOCEPHALIN], for which the AFC50 is given as more than 1000 ppm.

On to `CC(=O)OC[C@]12[C@H](CCC[C@]13CO3)[C@@]1(C[C@@H](c3ccoc3)O[C@@H]1O)[C@H](C)[C@@H](OC(C)=O)[C@@H]2OC(C)=O`, for which the AFC50 is on record as more than 1000 ppm.

`CC(=O)OC[C@]12[C@H](CCC[C@]13CO3)[C@@]1(C[C@@H](c3ccoc3)O[C@H]1OC(C)=O)[C@H](C)[C@@H](OC(C)=O)[C@@H]2O` showed an AFC50 of more than 1000 ppm.

As for `CC(=O)OC[C@]12[C@H](CCC[C@]13CO3)[C@@]1(C[C@@H](c3ccoc3)O[C@@H]1O)[C@H](C)[C@@H](O)[C@@H]2OC(C)=O`, the AFC50 stood at 39 ppm.

Turning to `CC(=O)OC[C@]12[C@H](CCC[C@]13CO3)[C@@]1(C[C@@H](c3ccoc3)O[C@@H]1O)[C@H](C)[C@@H](O)[C@@H]2O`, the AFC50 stood at 300 ppm.

The subject of a further test is Spodoptera littoralis. The test is described as follows: Antifeedant activity against Spodoptera littoralis larvae fed on compound-treated disk at 100 ppm after 18 hr by two-choice assay. It is filed as functional.
For the compound `CC(=O)O[C@@H]1O[C@H](c2ccoc2)C[C@]12[C@H](C)[C@@H](OC(C)=O)C(=O)[C@H]1[C@@H]2CCC[C@@]12CO[C@@H](C)O2`, the AFI is on record as 34.1%.

With `CC(=O)OC[C@]12[C@H](CCC[C@]13CO3)[C@@]1(C[C@@H](c3ccoc3)O[C@@H]1OC(C)=O)[C@H](C)[C@@H](OC(C)=O)[C@@H]2OC(C)=O`, the AFI was determined as 26.7%.

For the compound `CC(=O)O[C@@H]1O[C@H](c2ccoc2)C[C@]12[C@H](C)[C@@H](OC(C)=O)C(=O)[C@H]1[C@@H]2CCC[C@@]12CO[C@H](C)O2`, the AFI was -5.4%.

For `CC(=O)OC[C@]12[C@H](CCC[C@]13CO3)[C@@]1(C[C@@H](c3ccoc3)O[C@@H]1O)[C@H](C)[C@@H](OC(C)=O)[C@@H]2O`, the AFI worked out at 5.4%.

`CC(=O)OC[C@]12C(=O)[C@H](O)[C@@H](C)[C@]3(C[C@@H](c4ccoc4)O[C@H]3OC(C)=O)[C@H]1CCC[C@]21CO1` [ERIOCEPHALIN]: the AFI was 5.5%.

Consider `CC(=O)OC[C@]12[C@H](CCC[C@]13CO3)[C@@]1(C[C@@H](c3ccoc3)O[C@@H]1O)[C@H](C)[C@@H](OC(C)=O)[C@@H]2OC(C)=O`, for which the AFI was -14.3%.

For `CC(=O)OC[C@]12[C@H](CCC[C@]13CO3)[C@@]1(C[C@@H](c3ccoc3)O[C@H]1OC(C)=O)[C@H](C)[C@@H](OC(C)=O)[C@@H]2O`, the AFI is recorded as -21.1%.

For `CC(=O)OC[C@]12[C@H](CCC[C@]13CO3)[C@@]1(C[C@@H](c3ccoc3)O[C@@H]1O)[C@H](C)[C@@H](O)[C@@H]2OC(C)=O`, the AFI was found to be 54%.

As for `CC(=O)OC[C@]12[C@H](CCC[C@]13CO3)[C@@]1(C[C@@H](c3ccoc3)O[C@@H]1O)[C@H](C)[C@@H](O)[C@@H]2O`, the AFI was determined as 30.4%.
